“Also recorded” adds a separate entry of the source.
How the values were obtained:
MSCC cells = assay: Dose-response curves with kinase inhibitors, CellTiterGlo viability, MSCC cells; type: cell-based, murine; details: for IC50: Mus musculus
Protocol: (§1) Kinase inhibition dose response curves were performed with six kinase inhibitors (MK-1775 (a.k.a., […]), TAE684, PI828, PIK93, PP2, PF-562271) against kinase targets (WEE1, ALK, PI3K, PIK4CB, FYN, FAK (ILK surrogate)), respectively. Kinase inhibitors: MK-1775 (S1525), PIK93 (S1489), TAE684 (S1108) were obtained from Selleck Chemicals (Houston, Tex.); PI828 (2814), PP2 (1407) from Tocris Bioscience (Mpls, Minn.), and PF-562271 from Synkinase (San Diego, Calif.). All HNSCC (UMSCC-17A, UM-SCC47A, PCI-15A, PCI-15B, UM-SCC14A, UM-SCC14C) and MSCC (CK1: p53+/+ and CK4: p53−/−) cells were plated at ˜5-10×10^3 cells/100 μl per well, and incubated at 37° C. for ˜24 hours on 96-well assay plates (Corning Inc.). Serial dilutions of the kinase inhibitors and vehicle control (DMSO) were prepared in 1 mL assay blocks at 3× working concentration to generate dose-response curves ranging from 100 μM to 0.03 μM. All serial dilutions were prepared using cell culture media. Approximately 72 hours post-treatment, cells were assessed for metabolic activity via ATP using CellTiterGlo (Promega), following the protocol outlined by the manufacturer utilizing an FLx800, and/or a Synergy H4 Hybrid multi-mode reader (Biotek). All assays were performed in triplicate and normalized to wells with no treatment. Dose-response curves and IC50 values were generated using GraphPad Prism Version 5 (Parameters: nonlinear regression fit; equation=log (inhibitor) vs. response−variable slope (four parameters); single constraint).

PCI-15B xenografts = assay: Xenograft tumor model; type: in vivo, mice
HNSCC cells [1] = assay: Caspase-3/7 dependent apoptosis assay; type: cell-based, human; details: p53 mutant cells
Protocol: (§2) Mitotic entry was assessed as previously described (Aarts, M. et al, Cancer Discov 2012; 2:524-39). Briefly, HNSCC cells (PCI-15B, UMSCC-17A) were treated with 1 μM MK-1775 for 8 and 24 hours, and all cells were harvested, washed, and incubated with rabbit monoclonal antibody to phospho-histone H3 (Serine10) (Cell Signaling Technology, Cat. No. 3465, Danvers, Mass.) for 2 hours at RT, washed, and DNA stained with 20 μg/ml propidium iodide, RNaseA in PBS (Sigma-Aldrich; Cat. Nos. P4170, R6513). Flow cytometric analysis was performed utilizing a BD FACS Canto II, and profiles analyzed with BD Cell Quest software (Becton Dickinson, CA). Caspase-3/7 dependent apoptosis was assessed as per protocol (Promega, Cat. No. G8091) utilizing a SynergyH4 Hybrid Reader (Biotek, VT). AUCs were calculated for all treatments and vehicle (DMSO) for all cell lines utilizing two measurements over a 48-hour period with three concentrations (30 nm, 100 nm, 1 μM) of MK-1775.

WEE1 = assay: Immunoblotting of xenograft tumor lysates; type: in vivo; details: oral MK-1775 treated mice vs vehicle
Excerpt: Tumor tissues were minced and homogenized on ice in M-PER Mammalian Protein Extraction Reagent supplemented with Halt Protease and Phosphatase Inhibitor Cocktail (Thermo Fisher Scientific). Extracted proteins were quantified by a BCA protein assay (Thermo Fisher Scientific). […] Anti-WEE1 (Cat. No. 4936), anti-phospho-WEE1 ([…]) (Cat. No. 4910), anti-CDC2 (Cat. No. 9112), and anti-phospho-CDC2 (Tyr15) (Cat. No. 4539) antibodies were purchased from Cell Signaling Technology (Danvers, Mass.). The secondary antibodies used were ZyMaxTM horseradish peroxidase (HRP) conjugated goat-anti-rabbit IgG (Life Technologies). HRP was detected with SuperSignal West Pico Chemiluminescent Substrate kit (Thermo Fisher Scientific).

[2] = design: species or system mice; details: mouse, in vivo
Protocol: PCI-15B cells were inoculated subcutaneously into the right flanks of 28 eight-week old NOD/SCID IL2 gamma null mice (NSG) provided by the Olson laboratory at the Fred Hutchinson Cancer Research Center. When tumors reached a palpable mass of >50 mm^3, mice were randomly assigned into four treatment groups of seven mice each and all measurements and treatment regimens were carried out using a double-blind protocol. The WEE1 inhibitor MK-1775 (S1525-Selleck Chemicals, Houston, Tex.) was delivered by oral gavage (30 mg/kg) twice per week for 4 weeks in dimethylsulfoxide in 0.5% methylcellulose (M0512, Sigma Aldrich) in a 1:14 suspension. Cisplatin (P4394, cis-diammineplatinum (II) dichloride, Sigma Aldrich) was delivered via intra-peritoneal injection (4.0 mg/kg) once a week for 4 weeks. The volume of the implanted tumor was measured weekly with calipers and tumor volumes calculated using the formula: V=L×W^2/2; in which V, volume (mm^3); L, largest diameter (mm); W, smallest diameter (mm). All animal protocols were approved by the Fred Hutchinson Cancer Research Center Laboratory Animal Care and Use Committee.

[3] = tested on: HNSCC cells (PCI-15B, UMSCC-17A); assay: Mitotic entry and cell cycle analysis by flow cytometry; type: cell-based, human; details: for mitotic entry, phospho-histone H3 (serine 10): 1 μM
Protocol: as §2

HNSCC cells [4] = assay: Dose-response curves with kinase inhibitors, CellTiterGlo viability, HNSCC cells; type: cell-based, human; details: for IC50: Homo sapiens; for effect on viability of p53 mutant HNSCC cells: autologous pairs UMSCC-14A, UMSCC-14C, PCI-15A, PCI-15B, result in words
Protocol: as §1

[5] = p53−/− (p53 deficient) MSCC cells

Structure (SMILES): NC(=O)Nc1cc(-c2cccc(F)c2)sc1C(=O)N[C@H]1CCCNC1 [AZD7762]
- IC50 (MSCC cells; p53 wild type MSCC cells): 2200 nM
- IC50 (MSCC cells; [5]): 130 nM

Structure (SMILES): C=CCn1c(=O)c2cnc(Nc3ccc(N4CCN(C)CC4)cc3)nc2n1-c1cccc(C(C)(C)O)n1 [MK-1775]
- inhibition of growth of HNSCC tumors as compared to vehicle (PCI-15B xenografts; 30 mg/kg oral gavage twice weekly, 4-week protocol): 66%
- apoptotic marker caspase 3/7 (HNSCC cells [1]): activation
- IC50 (MSCC cells; p53 wild type MSCC cells): 4500 nM
- IC50 (MSCC cells; [5]): 220 nM
- IC50 lower in p53−/− MSCC cells compared to p53 wild type cells (MSCC cells; p53−/− vs p53 wild type MSCC): 20 fold
- phosphorylation of WEE1 in tumor lysates (WEE1): reduced phosphorylation
- phosphorylation of WEE1 substrate CDC2 in tumor lysates (WEE1): reduced phosphorylation
- tolerability of dosing regime [2]: well-tolerated
- 4N DNA content ([3]; p53 mutant cells): loss
- subG1 DNA content ([3]; p53 mutant cells): increase
- mitotic entry, phospho-histone H3 (serine 10) ([3]; p53 mutant cells (PCI-15B)): unscheduled mitotic entry
- mitotic entry, phospho-histone H3 (serine 10) ([3]; p53 wild type cells (UMSCC-17A)): not
- IC50 (HNSCC cells [4]; UMSCC14A, p53 mutant UMSCC-14A and UMSCC-14C cells and p53 wild type UMSCC-47 cells (intermediate)): 580 to 1100 nM
- IC50 (HNSCC cells [4]; p53 mutant PCI-15A and PCI-15B HNSCC cells): 140 to 170 nM
- IC50 (HNSCC cells [4]; p53 wild type UMSCC-17A cells): 4500 nM
- effect on viability of p53 mutant HNSCC cells (HNSCC cells [4]): sensitive; also recorded: impairs viability

Structure (SMILES): CN(c1ncccc1CNc1nc(Nc2ccc3c(c2)CC(=O)N3)ncc1C(F)(F)F)S(C)(=O)=O [PF-562271]
- effect on viability of p53 mutant HNSCC cells (HNSCC cells [4]): sensitive; also recorded: impairs viability

Structure (SMILES): Nc1ccc(-c2cccc3c(=O)cc(N4CCOCC4)oc23)cc1 [PI828]
- effect on viability of p53 mutant HNSCC cells (HNSCC cells [4]): impairs viability

Structure (SMILES): CC(=O)Nc1nc(C)c(-c2ccc(Cl)c(S(=O)(=O)NCCO)c2)s1 [PIK93]
- effect on viability of p53 mutant HNSCC cells (HNSCC cells [4]): sensitive; also recorded: impairs viability

Structure (SMILES): CC(C)(C)n1nc(-c2ccc(Cl)cc2)c2c(N)ncnc21 [PP2]
- effect on viability of p53 mutant HNSCC cells (HNSCC cells [4]): impairs viability

Structure (SMILES): COc1cc(N2CCC(N3CCN(C)CC3)CC2)ccc1Nc1ncc(Cl)c(Nc2ccccc2S(=O)(=O)C(C)C)n1 [TAE684]
- effect on viability of p53 mutant HNSCC cells (HNSCC cells [4]): sensitive; also recorded: impairs viability

Structure (SMILES): N.N.[Cl][Pt][Cl] [cisplatin, cis-diammineplatinum (II) dichloride]
- tumor regression (reduction) (PCI-15B xenografts; cisplatin 4.0 mg/kg i.p. once a week, 4 weeks, MK-1775 given 24 hours after cisplatin): 60%
